Data on eight molecules can be found in publication PMC6368365, “Didehydro-Cortistatin A Inhibits HIV-1 by Specifically Binding to the Unstructured Basic Region of Tat” (mBio, 2019).

Peptide text beside a SMILES is read from it. * marks the point of attachment. Cbz = O=C(OCc1ccccc1)*

Data set [1] can be described thus: MTT viability assay, 72 h. In kind it is cell-based. The conditions noted are these: human, HeLa-CD4-LTR-LacZ cells, mean ± SD, n = 2 to 3. The procedure: The assay was performed with MTT [3-(4,5-dimethyl-2-thiazolyl)-2,5-diphenyl-2H-tetrazolium bromide] as described in reference.
Background: Formazan colour is commonly taken as a measure of viable cells.

The subject of another data set is NL4-3 strain. Kind of data set: HIV-1 NL4-3 infection of HeLa-CD4-LTR-LacZ reporter cells, LacZ measured 72 h later. It counts as cell-based. The conditions noted are these: Human immunodeficiency virus 1, NL43; HeLa-CD4-LTR-LacZ cells infected with NL4-3, LacZ at 72 h; mean ± SD, n = 2 to 3; read-out: IC50. An excerpt:
To understand the structure-function relationship of the dCA molecule with respect to our structural model, we synthesized and characterized the ability of 11 analogs of dCA to inhibit HIV infection (Table 2). […] We used HeLa-CD4 cells stably expressing the HIV-1 5′ LTR driving β-galactosidase production (HeLa-CD4-LTR-LacZ cells) as a reporter for the infection with isolate NL4-3. Table 2 summarizes the IC50, 50% cytotoxic concentration (CC50), and therapeutic index (TI) for each compound. The loss of dCA activity was directly associated with the positioning and the chemical environment of the azote on the F ring and the presence of oxygen in ring B. Moreover, the E-F “skeleton angle” and the distance between the A-B-C-D and F rings affected the activity by more than 50-fold (analogs 7 and 10).
The activity of Tat in HeLa-CD4-LTR-Luc and OM10.1 cells was verified by a transactivation assay as described in reference. In HeLa-CD4-LTR-LacZ cells, the assay was performed as described in reference. A detailed protocol is provided in Text S1.
Transactivation assay. In HeLa-CD4-LTR-Luc cells and OM10.1 cells. The activity of Tat was verified by a transactivation assay as previously reported (13). Briefly, HeLa-CD4-LTR-Luc cells and OM10.1 were plated at 1×10^5 and 8x10^5 cells per well of a 6-well plate respectively. The following day, recombinant Tat protein was added to the cells in culture media without serum and in the presence of 100 μM of Chloroquine. Five hours later, serum was added at 5 % to the culture media. Cells were lysed 24 hrs later, protein concentration determined by Bradford assay and luciferase activity was measured for HeLa-CD4-LTR-Luc cells. Results corresponding to luciferase activity per protein concentration of each sample are shown as relative light unit (RLU). As for the OM10.1 cells, RNA was extracted using the RNA extraction kit (Qiagen) and DNA contamination was removed using Turbo-DNAse kit (Ambion). First-strand cDNA was synthesized using SuperscriptIII^TM first-strand cDNA kit (Invitrogen) and random hexamers as first-strand primers. qRT-PCR was performed with an aliquot of cDNA as template, using LightCycler? 480 SYBR Green I Master in a 20 µL reaction according to the manufacturer’s instructions. The mRNAs from each sample were used as negative control. Primer sequences for GAPDH (13) and all viral mRNAs as previously described (59). In HeLa-CD4-LTR-LacZ cells. It was performed as previously described (10). Briefly, cells were plated at 1×10^4 cells per well of a 96-well plate. Twenty-four hrs later HIV-1 NL4-3 strain was added in the presence of testing compound or DMSO. Seventy-two hrs post infection, cells were disrupted in lysis buffer (60 mM Na2HPO4, 40 mM NaH2PO4, 10 mM KCl, 10 mM MgSO4, 2.5 mM EDTA, 50 mM ß-mercaptoethanol, 0.125 % Nonidet P-40) and a quantitative chlorophenol red-ß-D-galactopyranoside (CPRG)-based (Boehringer Mannheim) assay was performed. The cell extracts were incubated in a reaction buffer (0.9 M phosphate buffer [pH 7.4], 9 mM MgCl2, 11 mM ß-mercaptoethanol, 7 mM CPRG) until a red color developed and measured with an LP400 (Becton Dickinson) plate reader at 572 nm.

Data set [2] concerns CA-sensitive AML cell lines. Also noted: method as in PMID 16522087, PMID 17765550, PMID 26416749. The conditions noted are these: read-out: IC50, antileukemic activity; cited from earlier work.
Data set [3] deals with human umbilical vein endothelial cells (HUVECs). Also noted: method as in PMID 16522087, PMID 17765550, PMID 26416749. The following applies: read-out: EC50, antiproliferative; cited from earlier work.
A further data set deals with T1, intracellular Tat (Human immunodeficiency virus type 1 group M subtype B, UniProt P69697).
T1 construct: pTatC6H-1 (NIH AIDS Reagent Program) plasmid encoding C-terminal 6xHistidine Tat1-86 (HXB3, subtype B); made in house; host or cells: E. coli BL21 (plasmid pTatC6H-1, NIH AIDS Reagent Program)
T1 sequence (P69697 whole entry): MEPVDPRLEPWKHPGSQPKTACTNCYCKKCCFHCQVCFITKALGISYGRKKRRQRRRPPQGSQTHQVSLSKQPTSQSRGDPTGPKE
Description: Steady state of recombinant Tat in HeLa-CD4-LTR-Luc cells (Western blot). It counts as cell-based, HIV-1. The conditions noted are these: 6 hours with compound, MG132 10 μM. How it is done: FIG 5 dCA stabilizes Tat structure. (A) Trp fluorescence assays. (Left) Schematic of the assay. (Center) DMSO, dCA (7.5× Tat concentration) or raltegravir (Ralt.; 7.5× Tat concentration) was incubated with Tat. The fluorescence of the Trp^11 of Tat protein was measured at the indicated wavelengths. Acrylamide (250 mM) was used as a quenching control of Tat fluorescence. (Right) Peak absorbance (λmax) versus increasing fold ratios of compounds to Tat protein. Data are representative of n = 3 independent experiments. (B) DARTS assays. Tat was incubated with DMSO or dCA, at increasing concentrations, in the presence of increasing concentrations of proteinase K (PK). […] Data are representative of n = 2 independent experiments. (C) Steady state of Tat in the presence of dCA in vivo. HeLa-CD4-LTR-Luc cells were incubated with recombinant Tat and then washed and incubated with the indicated compounds for 6 hours. […] (Left) Western blot representative of n = 4 independent experiments. MG132 was used as a positive control of Tat protection from degradation, and raltegravir was used as a negative control. (Right) Densitometry of the Tat band normalized to the actin band. Results represent the mean ± SEM from n = 4 independent experiments. Statistical significance was determined using one-way ANOVA with post hoc Tukey’s test. ns, not significant; ***, P < 0.0001; **, P < 0.001.
Next, we determined the half-life of recombinant Tat in HeLa-CD4-LTR-Luc cells in the presence of dCA (Fig. 5C). We incubated recombinant Tat with cells for 4 hours, and after several washes to remove extracellular Tat protein, we incubated cells with DMSO, dCA, or raltegravir for an additional 6 hours. Western blotting with anti-His antibody was performed to reveal intracellular Tat. […]
Half-life of Tat in vivo. […] Total protein concentration was assessed by Bradford assay and Tat protein in each condition determined by western blot with an anti-His antibody at 1:1500 dilution (Thermofisher). […]
For orientation: A western blot detects proteins with antibodies after separation by electrophoresis.

In another data set the target is T2, Pep B-TAR interaction (Human immunodeficiency virus type 1 group M subtype B, UniProt P20879).
T2 construct: Pep B is a peptide encompassing the basic domain of HIV Tat (^45ISYGRKKRRQRRRAP^59)
Kind of data set: EMSA of Tat's basic peptide (Pep B) with TAR. In kind it is biochemical, HIV-1. The following applies: Tat basic peptide residues 45 to 59. An excerpt:
FIG 6 dCA binding to Tat disrupts Tat-TAR interaction. (A) EMSA of full-length Tat with TAR in the presence of dCA. Raltegravir (Ralt.) and deleted bulge TAR (ΔTAR) were used as negative controls. Data are representative of n = 3 independent experiments. (B) EMSA of Tat’s basic domain with TAR in the presence of increasing concentrations of dCA to Tat’s basic peptide. Pep B is a peptide encompassing the basic domain of HIV Tat (^45ISYGRKKRRQRRRAP^59). Pep C (^69LSKQPASQPRGDPTG^83) and unlabeled or cold TAR (TARc) were used as negative controls. Neomycin, which binds to Tat and TAR, was used as a positive control. Ratios of compounds (or TARc) concentrations to peptide are shown. Data are representative of n = 3 independent experiments. […] Shown are ITC results from binding of dCA (left) or Tat peptide (right) to TAR at 25°C. […] For the lower plots, results were converted to molar heats and plotted against the molar ratio of dCA or peptide to RNA. Data are representative of n = 2 independent experiments. (D) Tat-TAR interaction blocked by dCA in HeLa-CD4-LTR-Luc cells in vivo. Cells transfected with Tat or Tat Mut (arginine residues mutated to alanine in Tat’s basic domain) were incubated with DMSO or the indicated compounds (25 nM). Forty-eight hours later, cells were either lysed to determine the luciferase activity or cross-linked for ChIP assays. Luciferase activity was determined relative to protein concentration (Bradford assay) (Fig. S9A). Western blotting was performed to verify the amount of Tat under each condition (Fig. S9B). ChIP of Tat was followed by qRT-PCR of TAR DNA. The results are presented as percentage of input. The mean ± SEM is represented. Data are representative of n = 3 independent experiments. Statistical significance was determined using one-way ANOVA with post hoc Tukey’s test with 3 technical replicates. ns, not significant; ***, P < 0.0001.
We also performed the same experiment with a peptide encompassing the basic domain of Tat (Pep B; residues 45 to 59) and dCA.
EMSA With full-length Tat: similar protocol was performed as in Das et al. (60). […]
A general note: In EMSA bound probe runs differently from free probe, usually more slowly.

`CC(=O)N(C)C1CC23CCC4(O2)C(=CCC2(C)C(c5ccc6ccncc6c5)=CCC24)C=C3C(O)C1O` (centres unmarked) [# 3]: in data set [1], it took 5.6 µM to reach half-maximal cytotoxicity (CC50 at 72 h). Besides, in the data set with NL4-3 strain, the IC50 (in general, the point on the concentration scale where inhibition reaches its midpoint) is 0.037 ± 0.0058 µM.
On the same counts, the results for `CC12CC=C3C=C4C(O)C(O)C(N)CC45CCC3(O5)C1CC=C2c1ccc2ccncc2c1` (centres unmarked) [# 4] are 23.1 ± 0.3 µM and 0.004 ± 0.0005 µM.
The matching figures for `CN(C)C1CC23CCC4(O2)C(=CCC2(C)C(c5ccc6cnncc6c5)=CCC24)C=C3C(O)C1O` (centres unmarked) [# 5]: 16.4 µM and 0.141 µM.
Turning to `Cc1n[nH]c2cc(C3=CCC4C3(C)CC=C3C=C5C(O)C(O)C(N(C)C)CC56CCC34O6)ccc12` (centres unmarked) [# 6], the CC50 (as a rule, the concentration that lowers cell viability or growth by half) at 72 h in data set [1] turned out to be 12.1 ± 0.8 µM. Moreover, the IC50 with NL4-3 strain was 0.0675 ± 0.0068 µM.
With `CN(C)C1CC23CCC4(O2)C(=CCC2(C)C(c5ccc6ccncc6c5)C(=O)CC42)C=C3C(O)C1O` (centres unmarked) [# 9], in data set [1], the half-maximal cytotoxic concentration (CC50) at 72 h is > 50 µM. In addition, the half-maximal inhibitory concentration (IC50) in the data set with NL4-3 strain was determined as 0.0005 ± 0.0001 µM.
In the case of `CN(C)[C@H]1C[C@@]23CC[C@@]4(O2)C(=CC[C@]2(C)[C@@H](c5ccc6ccncc6c5)CC[C@H]24)C=C3[C@@H](O)[C@@H]1O` [CA, cortistatin A], in data set [2], the IC50 was ~0.01 µM. Also, the half-maximal effective concentration (EC50) (as a rule, the concentration giving half of the maximal effect) in data set [3] was 0.35 µM.
`CC(C)C[C@@H](C=O)NC(=O)[C@H](CC(C)C)NC(=O)[C@H](CC(C)C)NC(=O)OCc1ccccc1` [MG132] (Cbz-Leu-Leu-Leu-aldehyde): the “percentage of remaining Tat” value on intracellular Tat turned out to be 40%.
In the case of neomycin, the “inhibition of Pep B-TAR interaction (EMSA)” value on Pep B-TAR interaction is “inhibited the interaction of Pep B with TAR”.
